Values after ≈ are worked out from the molar mass of the structure shown. Where two headings read alike, the source gives them in different places.

This is an account of results in US20250115578A1, “AROMATIC FUSED RING NAV1.8 INHIBITOR, AND USE THEREOF” (CHENGDU KANGHONG PHARMACEUTICAL CO., LTD., priority 2022, published 2025).

The target in one data set is Human Nav1.8 ion channel (Homo sapiens (Human), UniProt Q9Y5Y9). The data set is described as follows: Manual patch clamp, Method 2 (HEK293 cells stably expressing human Nav1.8, resting state). In kind it is cell-based. As to conditions: Method 2, HEK293-hNav1.8, resting state, 1 μM TTX; read-out: IC50 inhibitory activity against hNav1.8. A general note: In patch-clamp work, channel activity is measured electrically.

Data set [1] in a line: Assay of kinetic solubility. In kind it is physicochemical. As to conditions: aqueous buffer, kinetic from dmso stock, pH 3.5 phosphate buffer, 25° C. On the procedure:
The stock solutions of the test compound and the standard progesterone were prepared in DMSO at the concentration of 10 mM.
30 μL of stock solutions at 10 mM of the test compounds and standard substance were placed in order into their proper 96-well plate. 970 μL phosphate buffer at the specified pH was added to the proper vial of the sample plate. The assay was performed in duplicate. A stirring stick was added to each vial and the teflon/silicone plug was capped. The sample tray was then placed in the Eppendorf Thermomixer Comfort and shaken at 1100 RPM at 25° C. for 2 hours. After 2 hours, plugs were removed, a big magnet was used to remove the stirring sticks, and samples were transferred from the sample plate to the filter plate. Vacuum pump was used to create negative pressure and filtered the samples. Transferred 5 μL of the filtrate to the new sample plate, then added 5 μL DMSO and 490 μL water/acetonitrile (V/V=1/1) to dilute the solvent. The dilution factor may be adjusted according to the solubility values of the substances to be tested or the strength of its LC-MS signal response.
From the 10 mM DMSO stock solution, 15 μL of that was transferred into the empty plate and 485 μL DMSO was added to prepare a 300 μM standard solution. From the 300 μM standard solution plate, 5 μL of that was transferred to another empty plate and 5 μL phosphate buffer at specified pH and 490 μL water/acetonitrile (V/V=1/1) dilution solvent were added to the standard solution to get a final concentration of 3 μM. The concentration of the standard solution may be adjusted according to the strength of its LC-MS signal response.
The sample plate was placed into the sample tray of the automatic sampler and the samples were evaluated by LC-MS/MS analysis.
All calculations were carried out by Microsoft Excel.
The sample filtrate was analyzed and quantified against a standard of known concentrations using LC-MS spectral peaks to identify and quantify. The solubility values of the control drug and the compounds to be tested were calculated as the following formula: • [Sample]: concentration of the sample • AREASample: peak area of the sample • INJ VOLStd: standard sample injection volume • DFSample: sample dilution factor • [STD]: standard substance concentration • AREAStd: peak area of standard substance • INJ VOLSample: sample injection volume

In a further data set the target is hNav1.8 (Homo sapiens (Human), UniProt Q9Y5Y9). In words: Manual patch clamp, Method 1 (CHO cell line stably expressing hNav1.8). It is filed as cell-based. As to conditions: 100 nM; Method 1, CHO-hNav1.8; read-out: Inhibition rate of hNav1.8. The text has this: The patch clamp technique is known as the “gold standard” for studying ion channels, and it uses glass microelectrodes to seal the cell membrane to measure the currents of various membrane channel. […] Patch clamp technology can evaluate the inhibition strength of different compounds on different states of Navs by measuring the changes of membrane channel currents after different compounds bind to different states of Navs.
The representative compounds of the present invention used stable CHO or HEK293 cell lines transfected with specific ion channels to measure the effect of the compounds on Nav1.8 currents by manual patch clamp test, to evaluate their inhibition strength.
The assay protocol of manual patch clamp is as follows:
CHO cell lines with stable expression of hNav1.8 were cultured in F12 medium containing 10% fetal bovine serum at a constant temperature of 37° C., and the carbon dioxide concentration was maintained at 5%. The old culture medium was removed and washed once with PBS, then 1 mL 0.25%-Trypsin-EDTA solution was added and incubated at 37° C. for 1 min. When the cells were detached from the bottom of the dish, 5 mL of the complete medium preheated at 37° C. was added, and the aggregated cells were separated by gently blowing with a straw. The cell suspension was transferred into a sterile centrifuge tube and centrifuged at 1000 rpm for 5 min to collect cells. The cells were then inoculated into a cell culture dish with a diameter of 6 cm (2.5×10^5 cells/petri dish, 5 mL medium) for expansion or maintenance.
In order to maintain the electrophysiological activity of the cells, the cell density must be less than 80%.
The cells were separated with 0.25%-Trypsin-EDTA before the assay, and 5×10^3 cells were seeded on a cover slip and cultured in a 24-well plate (final volume: 500 μL) for 18 h. Then the assay was conducted.
The compounds prepared in the examples of the present invention were dissolved in dimethyl sulfoxide (DMSO) and prepared into DMSO stock solution with a concentration of 10 mM for assay. And it was diluted to various concentrations with extracellular solution (140 mM NaCl, 3.5 mM KCl, 1 mM MgCl2, 2 mM CaCl2), 10 mM Glucose, 10 mM HEPES, 1.25 mM NaH2PO4, pH=7.4 regulated by NaOH), and the final concentration of DMSO in each compound sample was 0.10% or less.
A capillary glass pipette (BF150-86-10, Sutter Instruments) was pulled into a recording electrode with a micropipette puller (P97, Sutter Instruments). The micromanipulator (MP285, Sutter Instruments) was manipulated under an inverted microscope (IX71, Olympus) to make the recording electrode contact the cell and negative pressure suction was applied to achieve a GQ seal. Then, rapid capacitance compensation was performed, and negative pressure was continued, cell membrane was broken by suction, and whole cell recording mode was formed. Then the slow capacitance was compensated and the membrane capacitance and series resistance were recorded without leakage compensation. When the whole cell recording current was stabilized, dosing was initiated, and the next concentration was detected after acting 5 minutes of each drug concentration. Multiple cells were independently repeated during the recording period. All electrophysiological assays were performed at room temperature. Specifically, 6 concentrations (measuring IC50) or 2 concentrations (preliminary screening) were set for each compound, and the percentage of inhibition of sodium channels was determined by calculating the relative percentage of peak current generated before and after each concentration compound treated cells, and the IC50 value or percentage of inhibition at a specific concentration was calculated using IGOR pro software.

A short description of data set [2]: Stability assay for human liver microsomes in vitro. It is filed as in vitro ADME. As to conditions: 1 μM compound, 0.5 mg/mL liver microsomes, read-out: Human liver microsome stability T1/2. On the procedure:
• Human liver microsomes, purchased from Corning or Xenotech, stored in a −80° C. refrigerator. • Nicotinamide adenine dinucleotide phosphate (NADPH), Chem-impex international, 00616 • Control compounds: testosterone, diclofenac, propafenone
• Water bath (HH-60, Guohua, Changzhou, China) • Pipette workstation (PP-550DS, Apricot, Covina, USA) • Centrifuge (5810R, Eppendorf, Hamburg, Germany) • Mass Spectrometer (Sciex API 4000, Singapore) • High Performance Liquid Chromatography (LC 20-AD, Shimadzu, Kyoto, Japan) • Sampler (ADDA, Apricot Designs, California, USA)
• Stock solution: 10 mM in DMSO • Working solution concentration preparation: 10 mM stock solution was diluted to 100 μM with 100% acetonitrile (organic phase content: 99% ACN, 1% DMSO)
Two 96-well incubation plates were named T60 incubation plate and NCF60 incubation plate.
445 μL microsomal working solution (liver microsomal protein concentration: 0.56 mg/mL) was added to the T60 and NCF60 incubation plates respectively, then the incubation plates above were placed in a water bath at 37° C. for pre-incubation approximately 10 minutes.
After the pre-incubation finished, 5 μL of the test compound working solution was added to the T60 and NCF60 incubation plates respectively, and mixed well. 50 μL potassium phosphate buffer was added to each well on the NCF60 incubation plate to start the reaction. 180 μL termination solution (acetonitrile solution containing 200 ng/mL tolbutamide and 200 ng/mL labetalol) and 6 uL working solution of NADPH regeneration system were added to the TO termination plate, and 54 μL samples were removed from the T60 incubation plate to the TO termination plate (TO sample generated). The reaction was initiated by adding 44 μL of NADPH regenerating system working solution per well on the T60 incubation plate. Only 54 μL microsomal working solution, 6 uL NADPH regeneration system working solution, and 180 μL termination solution were added to the Blank plate. Therefore, in the samples of the test or control compounds, the final reaction concentration of the compounds, testosterone, diclofenac and propafenone was 1 μM, the concentration of the liver microsomes was 0.5 mg/mL, and the final concentration of DMSO and acetonitrile in the reaction system was 0.01% (v/v) and 0.99% (v/v), respectively.
After incubation for an appropriate time (e.g. 5, 10, 20, 30, and 60 minutes), 180 μL of termination solution (acetonitrile solution containing 200 ng/mL tolbutamide and 200 ng/mL labetalol) was added to the sample hole of each termination plate, respectively. After that, 60 μL sample was removed from the T60 incubation plate to terminate the reaction.
All sample plates were shaken evenly and centrifuged at 3220×g for 20 min. Then 80 μL supernatant was taken from each well and diluted to 240 μL pure water for LC-MS/MS analysis.
All samples were injected for analysis.
(Liver microsomes are vesicles of endoplasmic reticulum, rich in cytochrome P450 enzymes.)

Data set [3] deals with postoperative pain model in rats. In words: Efficacy test in postoperative pain model in rats (mechanical allodynia, PWT). It is filed as in vivo, Sprague-Dawley male rats. As to conditions: single oral 30 mg/kg, at 2 h and 4 h after administration. How it is done: Sprague-Dawley male rats, purchased from Zhejiang Vital River Laboratory Animal Technology Co., LTD
Compounds of the example 10, 14, 16, 31 of the invention were weighted and prepared into solutions of 3 mg/mL using 5% DMSO (Anhui Senrise Technologies Co., Ltd)+30% Solutol HS15 (Beijing Ouhe Technology Co., LTD.)+65% water for injection, and administered at a volume of 10 mL/kg by gavage. The dosage was 30 mg/kg.
Animals were anesthetized with Zoletil 50+ Xylazine Hydrochloride (20 mg/kg+8 mg/kg, intraperitoneally injected). The surgical area on the plantar skin of the left hind paw was disinfected three times with iodophor and 70% ethanol, and the surgery was started after the skin was dry.
A longitudinal incision about 1 cm was made towards the toes starting from 0.5 cm away from the heel of the left hind paw. After the skin was incised, the flexor digitorum brevis was raised and longitudinal blunt injury was caused. After hemostasis by pressing, the wound was sutured. After surgery, animals were placed on an electric warm pad and 5 mL of physiological saline was injected subcutaneously to prevent dehydration. 24 h after modeling, all animals (including the normal control group) were tested for base mechanical allodynia (PWT). The modeling animals without mechanical hypersensitivity (PWT greater than 5 g) were excluded and […] were selected and randomly divided into 5 groups, with 9 animals in each group except 5 in the normal group (negative control group).
The animals were weighed and administered orally at a volume of 10 mL/kg. Except normal control animals, other animals were given a single dose of compounds, and mechanical allodynia was performed by test fibers on all groups of animals at 1 h, 2 h and 4 h after dosing. The rats were placed individually in a plexiglass box with a grid at the bottom to ensure that the paws of the rats could be tested. The rats would acclimate for 15 minutes before the test. After the acclimation was completed, the test fibers were used to test on the plantar center of the rat's left hind paw. Pressed the test fiber vertically against the skin and applied force to bend the fiber for 6 to 8 seconds, with 5 second intervals between each test. The rapid withdrawal of the animal's paws during the test was recorded as a pain response. The animal's paw withdrawal when the fibers left the animal's skin was also recorded as a pain response. If the animal moves or walks around, it's not recorded as a pain response, and the test should be repeated.
Mechanical hyperalgesia was expressed as the paw withdrawal threshold (PWT) in the rat behavioral test, which was calculated according to the following formula:
50% response threshold (g)=(10^(Xf+kδ)/10,000 • Xf=final test fiber value used in the test • k=table value (Chaplan et al. 1994, page 62) • δ=mean deviation
Data were collected with excel software and analyzed with Prism 7.0 (Graph pad software, Inc.) software by two-way ANOVA followed by Dunnett multiple comparison test.

The subject of data set [4] is STZ-induced diabetic neuropathic heat pain model. As to conditions: cited from earlier work.
The test system of a further data set is animal models of pain. As to conditions: carrageenan, CFA, CCI, SNL and acute mechanical pain models; cited from earlier work.
For the next data set, the system named is CFA and SNL models. As to conditions: cited from earlier work.
The test system of another data set is postoperative toothache. As to conditions: phase II; cited from earlier work.

hNav1.8, sequence (Q9Y5Y9 whole entry): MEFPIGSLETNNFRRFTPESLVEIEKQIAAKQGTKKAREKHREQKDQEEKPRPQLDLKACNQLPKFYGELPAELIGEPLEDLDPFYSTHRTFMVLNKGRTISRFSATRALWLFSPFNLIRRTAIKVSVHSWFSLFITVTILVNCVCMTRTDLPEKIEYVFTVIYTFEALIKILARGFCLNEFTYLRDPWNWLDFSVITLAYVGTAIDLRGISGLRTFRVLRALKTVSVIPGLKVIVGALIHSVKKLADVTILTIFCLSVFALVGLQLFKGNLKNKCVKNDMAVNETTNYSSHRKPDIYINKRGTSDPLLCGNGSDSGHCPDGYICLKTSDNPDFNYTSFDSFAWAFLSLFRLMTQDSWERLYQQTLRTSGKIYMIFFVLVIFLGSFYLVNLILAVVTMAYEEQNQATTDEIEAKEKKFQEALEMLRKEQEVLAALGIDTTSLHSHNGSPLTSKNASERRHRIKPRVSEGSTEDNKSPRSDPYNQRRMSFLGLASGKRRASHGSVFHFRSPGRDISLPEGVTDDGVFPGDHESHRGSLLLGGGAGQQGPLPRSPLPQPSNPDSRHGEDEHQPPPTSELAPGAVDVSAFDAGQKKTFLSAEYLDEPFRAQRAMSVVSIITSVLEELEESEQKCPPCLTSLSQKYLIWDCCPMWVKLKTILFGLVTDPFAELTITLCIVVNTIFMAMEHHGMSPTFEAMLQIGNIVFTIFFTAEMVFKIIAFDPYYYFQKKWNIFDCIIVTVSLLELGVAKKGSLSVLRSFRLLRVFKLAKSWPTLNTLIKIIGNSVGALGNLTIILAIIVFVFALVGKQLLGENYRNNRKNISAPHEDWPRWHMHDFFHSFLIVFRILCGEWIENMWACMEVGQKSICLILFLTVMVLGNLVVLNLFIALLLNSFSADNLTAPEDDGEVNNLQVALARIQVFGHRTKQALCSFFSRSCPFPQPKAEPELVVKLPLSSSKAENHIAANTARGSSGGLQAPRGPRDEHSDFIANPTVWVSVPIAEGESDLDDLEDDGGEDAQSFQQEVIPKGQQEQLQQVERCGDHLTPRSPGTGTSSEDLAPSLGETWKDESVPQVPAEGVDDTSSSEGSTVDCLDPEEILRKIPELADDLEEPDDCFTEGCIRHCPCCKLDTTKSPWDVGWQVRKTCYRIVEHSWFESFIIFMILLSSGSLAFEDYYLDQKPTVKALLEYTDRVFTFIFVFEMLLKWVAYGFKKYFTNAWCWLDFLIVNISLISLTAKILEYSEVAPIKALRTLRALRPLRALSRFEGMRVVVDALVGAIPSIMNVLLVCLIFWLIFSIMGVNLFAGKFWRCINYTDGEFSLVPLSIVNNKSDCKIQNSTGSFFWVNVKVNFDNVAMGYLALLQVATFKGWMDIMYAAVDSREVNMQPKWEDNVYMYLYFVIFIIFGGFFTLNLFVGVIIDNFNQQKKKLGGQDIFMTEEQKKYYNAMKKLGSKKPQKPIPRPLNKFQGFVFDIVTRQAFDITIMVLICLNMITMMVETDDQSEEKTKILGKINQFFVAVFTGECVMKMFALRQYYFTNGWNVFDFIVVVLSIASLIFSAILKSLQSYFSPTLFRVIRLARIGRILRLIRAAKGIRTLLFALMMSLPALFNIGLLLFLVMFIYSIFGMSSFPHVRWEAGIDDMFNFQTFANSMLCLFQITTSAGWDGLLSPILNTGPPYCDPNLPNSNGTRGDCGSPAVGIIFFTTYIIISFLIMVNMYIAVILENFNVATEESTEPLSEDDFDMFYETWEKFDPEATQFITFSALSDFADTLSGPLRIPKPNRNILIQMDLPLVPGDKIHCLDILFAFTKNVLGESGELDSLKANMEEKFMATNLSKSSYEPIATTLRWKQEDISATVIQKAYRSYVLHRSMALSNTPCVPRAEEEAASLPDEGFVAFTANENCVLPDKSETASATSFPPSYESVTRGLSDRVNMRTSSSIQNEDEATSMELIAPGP

In the case of `CS(=N)(=O)c1cc(NC(=O)c2cc3ccccc3nc2N2CCCC(F)(F)CC2)ccn1` (stereo not shown) [Example 26, 2-(4,4-difluoroazepan-1-yl)-N-(2-(S-methylsulfonimidoyl)pyridin-4-yl)quinoline-3-carboxamide], at Human Nav1.8 ion channel, the half-maximal inhibitory concentration (IC50) (commonly the concentration needed to halve the response being measured) was 8 nM. In data set [1], the solubility (kinetic) (in general, solubility judged after dilution from a stock solution rather than from solid) at 2 h was 127 µM (≈ 58.4 µg/mL). Also, the inhibition (commonly the drop in the measured response relative to a control, in per cent) at 0.1 µM at hNav1.8 turned out to be 91.5%. Moreover, the half-life at 1 µM in data set [2] turned out to be 1.17 h.

For `NS(=O)(=O)c1cc(NC(=O)c2cc(Cl)c(C(F)(F)F)cc2N2CCCC(F)(F)CC2)ccn1` [Example 31, 5-chloro-2-(4,4-difluoroazepan-1-yl)-N-(2-sulfamoylpyridin-4-yl)-4-trifluoromethylbenzamide, reference compound], the kinetic solubility at 2 h in data set [1] was 0.69 µM (≈ 0.354 µg/mL). The “Inhibition of mechanical hyperalgesia induced by postoperative pain model” value in [3] is “inhibited mechanical hyperalgesia”. On hNav1.8, the inhibition at 0.1 µM is 97.1%.

Regarding `COc1cc(NC(=O)c2ccc(-c3ccc(Cl)cc3)o2)cc(OC)c1` [Example A-803467], in data set [4] (local injection of plantar), the “Duration of efficacy versus lidocaine” value was “lasted longer” and the Efficacy versus lidocaine entry is given as “equivalent”. Moreover, the Efficacy versus lidocaine result in data set [4] (systemic administration) is recorded as “superior to lidocaine”. Further, the “Pain relief effect compared with the model group” value with animal models of pain is reported as “exceeding 50%”.

With `CNC(=O)c1ccc(-c2cc(Cl)cc(Cl)c2Cl)c(N)n1` [PF-01247324], the Pain relief result in the data set with CFA and SNL models was “significant pain relief”.

In the case of `COc1ccc(Cl)c(-c2ccc(NC(=O)c3ccnn3C)nc2N)c1` [PF-04531083], the Activity versus placebo entry with postoperative toothache is recorded as “did not show better activity than placebo”.
